Where two headings read alike, the source gives them in different places.
Tests used:
MAGL [1] = molecular target: MAGL (Homo sapiens (Human), UniProt Q99685); experiment: In vitro competitive activity-based protein profiling (gel-based, FP-Rh or HT-01 probe); assay type: biochemical
Description: In Vitro Competitive Activity-Based Protein Profiling.
Proteomes (human prefrontal cortex or cell membrane fractions) (50 μL, 1.0 mg/mL total protein concentration) were preincubated with varying concentrations of inhibitors at 37° C. After 30 min, FP-Rh or HT-01 (1.0 μL, 50 μM in DMSO) was added and the mixture was incubated for another 30 min at room temperature. Reactions were quenched with SDS loading buffer (15 μL—4×) and run on SDS-PAGE.

MAGL [2] = molecular target: MAGL (Mus musculus (Mouse), UniProt O35678); experiment: In vitro competitive activity-based protein profiling, mouse brain proteome; assay type: biochemical; settings: for inhibition at 1 µM: mouse; for IC50: mouse brain
MAGL (Mus musculus (Mouse), UniProt O35678), sequence (O35678 whole entry): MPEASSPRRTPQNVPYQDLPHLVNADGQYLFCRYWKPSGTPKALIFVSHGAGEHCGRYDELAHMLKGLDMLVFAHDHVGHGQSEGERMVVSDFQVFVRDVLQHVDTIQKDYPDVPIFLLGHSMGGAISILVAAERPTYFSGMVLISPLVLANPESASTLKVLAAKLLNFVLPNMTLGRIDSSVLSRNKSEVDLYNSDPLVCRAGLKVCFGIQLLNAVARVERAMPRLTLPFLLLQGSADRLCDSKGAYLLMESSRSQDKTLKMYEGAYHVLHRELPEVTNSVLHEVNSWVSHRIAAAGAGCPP

[3] = human PC3, read-out: MAGL Human PC3 (IC50)
[4] = human PFC (prefrontal cortex), read-out: MAGL Human PFC (IC50)
[5] = human PC3, read-out: MAGL % Inhibition at 1 μM (human PC3)
[6] = human PFC (prefrontal cortex), read-out: MAGL % Inhibition at 1 μM (human PFC)

MAGL (Homo sapiens (Human), UniProt Q99685), sequence (Q99685 whole entry): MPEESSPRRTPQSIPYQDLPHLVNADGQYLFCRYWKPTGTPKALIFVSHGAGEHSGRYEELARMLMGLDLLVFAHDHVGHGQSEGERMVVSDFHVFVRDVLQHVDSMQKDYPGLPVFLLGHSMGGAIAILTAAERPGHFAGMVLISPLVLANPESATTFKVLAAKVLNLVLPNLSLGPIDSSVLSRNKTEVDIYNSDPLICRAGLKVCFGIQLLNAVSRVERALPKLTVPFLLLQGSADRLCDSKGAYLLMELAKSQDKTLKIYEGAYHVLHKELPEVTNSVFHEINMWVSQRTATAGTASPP

Row | IC50 (MAGL [1]; [3]) [µM] | IC50 (MAGL [1]; [4]) [µM] | inhibition at 1 µM (MAGL [2]) [%] | IC50 (MAGL [2]) [µM] | inhibition at 1 µM (MAGL [1]; [5]) [%] | inhibition at 1 µM (MAGL [1]; [6]) [%] | Compound
1 | < 0.1 | < 0.1 | > 75 | < 0.1 | – | – | O=C(OC(C(F)(F)F)C(F)(F)F)N1CCC2(CCCN2C(=O)c2cc3cccc(F)c3s2)CC1 [Example 96, 1,1,1,3,3,3-Hexafluoropropan-2-yl 1-(7-fluorobenzo[b]thiophene-2-carbonyl)-1,8-diazaspiro[4.5] decane-8-carboxylate]
2 | – | – | < 25 | – | > 75 | > 75 | O=C(OC(C(F)(F)F)C(F)(F)F)N1CCC2(CCCN2C(=O)Cc2ncccn2)CC1 [Example 195, 1,1,1,3,3,3-Hexafluoropropan-2-yl 1-(2-(pyrimidin-2-yl)acetyl)-1,8-diazaspiro[4.5] decane-8-carboxylate]
3 | < 0.1 | – | > 75 | < 0.1 | – | – | O=C(OC(C(F)(F)F)C(F)(F)F)N1CCC2(CCCN2C(=O)c2ccc3scnc3c2)CC1 [Example 86, 1,1,1,3,3.3-Hexafluoropropan-2-yl 1-(benzo[d]thiazole-5-carbonyl)-1,8-diazaspiro[4.5] decane-8-carboxylate]
4 | < 0.1 | – | > 75 | – | > 75 | > 75 | Cc1nn2cccnc2c1C(=O)N1CCCC12CCN(C(=O)OC(C(F)(F)F)C(F)(F)F)CC2 [Example 171, 1,1,1,3,3,3-Hexafluoropropan-2-yl 1-(2-methylpyrazolo[1,5-a]pyrimidine-3-carbonyl)-1,8-diazaspiro[4.5] decane-8-carboxylate]
5 | – | < 0.1 | > 75 | – | – | > 75 | Cc1cc(C(F)(F)F)n2nc(C(=O)N3CCCC34CCN(C(=O)OC(C(F)(F)F)C(F)(F)F)CC4)c(Cl)c2n1 [Example 121, 1,1,1,3,3,3-Hexafluoropropan-2-yl 1-(3-chloro-5-methyl-7-(trifluoromethyl)pyrazolo[1,5-a]pyrimidine-2-carbonyl)-1,8-diazaspiro[4.5] decane-8-carboxylate]
6 | – | – | > 75 | – | > 75 | > 75 | Cc1cccnc1C1(C(=O)N2CCCC23CCN(C(=O)OC(C(F)(F)F)C(F)(F)F)CC3)CC1 [Example 30, 1,1,1,3,3,3-Hexafluoropropan-2-yl 1-(1-(3-methylpyridin-2-yl)cyclopropane-1-carbonyl)-1,8-diazaspiro[4.5]decane-8-carboxylate]
7 | < 0.1 | – | > 75 | < 0.1 | – | – | O=C(OC(C(F)(F)F)C(F)(F)F)N1CCC2(CCCN2C(=O)c2nc3ccccc3s2)CC1 [Example 75, 1,1,1,3,3,3-Hexafluoropropan-2-yl 1-(benzo[d]thiazole-2-carbonyl)-1,8-diazaspiro[4.5] decane-8-carboxylate]
8 | < 0.1 | – | > 75 | – | – | > 75 | Cc1nc(C)c(C(=O)N2CCCC23CCN(C(=O)OC(C(F)(F)F)C(F)(F)F)CC3)o1 [Example 128, 1,1,1,3,3,3-Hexafluoropropan-2-yl 1-(2,4-dimethyloxazole-5-carbonyl)-1,8-diazaspiro[4.5] decane-8-carboxylate]
9 | – | – | < 25 | – | – | 25 to 75 | O=C(OC(C(F)(F)F)C(F)(F)F)N1CCC2(CCCN2C(=O)c2cncnc2)CC1 [Example 68, 1,1,1,3,3,3-Hexafluoropropan-2-yl 1-(pyrimidine-5-carbonyl)-1,8-diazaspiro[4.5] decane-8-carboxylate]
10 | < 0.1 | – | > 75 | < 0.1 | – | – | O=C(OC(C(F)(F)F)C(F)(F)F)N1CCC2(CCCN2C(=O)c2ccn(Cc3ccccc3)n2)CC1 [Example 91, 1,1,1,3,3,3-Hexafluoropropan-2-yl 1-(1-benzyl-1H-pyrazole-3-carbonyl)-1,8-diazaspiro[4.5] decane-8-carboxylate]
11 | < 0.1 | – | > 75 | < 0.1 | – | – | O=C(OC(C(F)(F)F)C(F)(F)F)N1CCC2(CCCN2C(=O)c2ccn(-c3ccc(Cl)cc3)n2)CC1 [Example 92, 1,1,1,3,3,3-Hexafluoropropan-2-yl 1-(1-(4-chlorophenyl)-1H-pyrazole-3-carbonyl)-1,8-diazaspiro[4.5] decane-8-carboxylate]
12 | < 0.1 | – | > 75 | < 0.1 | – | – | Cc1c(C(=O)N2CCCC23CCN(C(=O)OC(C(F)(F)F)C(F)(F)F)CC3)[nH]c2ccc(F)cc12 [Example 104, 1,1,1,3,3,3-Hexafluoropropan-2-yl 1-(5-fluoro-3-methyl-1H-indole-2-carbonyl)-1,8-diazaspiro[4.5]decane-8-carboxylate]

Further lines, the compound ahead of its results:

Row | Compound | IC50 (MAGL [1]; [3]) [µM] | IC50 (MAGL [1]; [4]) [µM] | inhibition at 1 µM (MAGL [2]) [%] | IC50 (MAGL [2]) [µM] | inhibition at 1 µM (MAGL [1]; [5]) [%] | inhibition at 1 µM (MAGL [1]; [6]) [%]
13 | COc1ccnc(C2(C(=O)N3CCCC34CCN(C(=O)OC(C(F)(F)F)C(F)(F)F)CC4)CC2)n1 [Example 203, 1,1,1,3,3,3-Hexafluoropropan-2-yl 1-(1-(4-methoxypyrimidin-2-yl)cyclopropane-1-carbonyl)-1,8-diazaspiro [4.5]decane-8-carboxylate] | < 0.1 | – | > 75 | – | > 75 | > 75
14 | CN(C(=O)c1cnc2cccnn12)C1(C)CCN(C(=O)OC(C(F)(F)F)C(F)(F)F)CC1 [Example 168, 1,1,1,3,3,3-Hexafluoropropan-2-yl 4-methyl-4-(N-methylimidazo[1,2-b]pyridazine-3-carboxamido) piperidine-1-carboxylate] | < 0.1 | – | > 75 | – | > 75 | > 75
15 | O=C(OC(C(F)(F)F)C(F)(F)F)N1CCC2(CCCN2C(=O)c2c(C(F)(F)F)nc3n2CCCC3)CC1 [Example 139, 1,1,1,3,3,3-Hexafluoropropan-2-yl 1-(2-(trifluoromethyl)-5,6,7,8-tetrahydroimidazo [1,2-a]pyridine-3-carbonyl)-1,8-diazaspiro[4.5] decane-8-carboxylate] | < 0.1 | – | > 75 | – | – | > 75
16 | CC(=O)N1CCn2cc(C(=O)N(C)C3(C)CCN(C(=O)OC(C(F)(F)F)C(F)(F)F)CC3)nc2C1 [Example 26, 1,1,1,3,3,3-Hexafluoropropan-2-yl 4-(7-acetyl-N-methyl-5,6,7,8-tetrahydroimidazo[1,2-a]pyrazine-2-carboxamido)-4-methylpiperidine-1-carboxylate] | – | – | 25 to 75 | – | > 75 | > 75
17 | O=C(O)Cn1cc(Cl)c(C(=O)N2CCCC23CCN(C(=O)OC(C(F)(F)F)C(F)(F)F)CC3)n1 [Example 173, 2-(4-Chloro-3-(8-(((1,1,1,3,3,3-hexafluoropropan-2-yl)oxy)carbonyl)-1,8-diazaspiro[4.5]decane-1-carbonyl)-1H-pyrazol-1-yl)acetic acid] | – | – | < 25 | – | – | > 75
18 | O=C(OC(C(F)(F)F)C(F)(F)F)N1CCC2(CCCN2Cc2ccc3cccc(Cl)c3n2)CC1 [Example 57, 1,1,1,3,3,3-Hexafluoropropan-2-yl 1-((8-chloroquinolin-2-yl)methyl)-1,8-diazaspiro[4.5] decane-8-carboxylate] | < 0.1 | – | > 75 | < 0.1 | – | –
19 | O=C(OC(C(F)(F)F)C(F)(F)F)N1CCC2(CCCN2C(=O)c2cc3nc(C(F)F)cc(C(F)F)n3n2)CC1 [Example 166, 1,1,1,3,3,3-Hexafluoropropan-2-yl 1-(5,7-bis(difluoromethyl)pyrazolo [1,5-a]pyrimidine-2-carbonyl)-1,8-diazaspiro [4.5]decane-8-carboxylate] | – | – | > 75 | – | > 75 | > 75
20 | CN(C(=O)c1nnc2n1CCNC2)C1(C)CCN(C(=O)OC(C(F)(F)F)C(F)(F)F)CC1 [Example 210, 1,1,1,3,3,3-Hexafluoropropan-2-yl 4-methyl-4-(N-methyl-5,6,7,8-tetrahydro-[1,2,4]triazolo [4,3-a]pyrazine-3-carboxamido) piperidine-1-carboxylate] | – | – | 25 to 75 | – | 25 to 75 | > 75
21 | O=C(OC(C(F)(F)F)C(F)(F)F)N1CCC2(CCCN2C(=O)c2cn3c(n2)CN(C2CCOCC2)CC3)CC1 [Example 162, 1,1,1,3,3,3-Hexafluoropropan-2-yl 1-(7-(tetrahydro-2H-pyran-4-yl)-5,6,7,8-tetrahydroimidazo [1,2-a]pyrazine-2-carbonyl)-1,8-diazaspiro[4.5] decane-8-carboxylate] | < 0.1 | – | > 75 | – | > 75 | –
22 | Cn1cc(Cl)c(CN2CCCC23CCN(C(=O)OC(C(F)(F)F)C(F)(F)F)CC3)n1 [Example 133, 1,1,1,3,3.3-Hexafluoropropan-2-yl 1-((4-chloro-1-methyl-1H-pyrazol-3-yl)methyl)-1,8-diazaspiro[4.5] decane-8-carboxylate] | < 0.1 | – | > 75 | – | – | > 75
23 | CC(C)n1cc(CN2CCC3(CCN(C(=O)OC(C(F)(F)F)C(F)(F)F)CC3)C2)c(-c2cccc(C(=O)O)c2)n1 [Example 113, 3-(4-((8-(((1,1,1,3,3,3-Hexafluoropropan-2-yl)oxy)carbonyl)-2,8-diazaspiro[4.5]decan-2-yl)methyl)-1-isopropyl-1H-pyrazol-3-yl) benzoic acid] | – | – | 25 to 75 | – | – | 25 to 75
24 | O=C(OC(C(F)(F)F)C(F)(F)F)N1CCC2(CCCN2Cc2cc3cc(Cl)c(Cl)cc3[nH]2)CC1 [Example 112, 1,1,1,3,3.3-Hexafluoropropan-2-yl 1-((5,6-dichloro-1H-indol-2-yl)methyl)-1,8-diazaspiro[4.5] decane-8-carboxylate] | – | – | > 75 | – | – | > 75

From patent publication US11142526B2, “Spirocycle compounds and methods of making and using same” (H. Lundbeck A/S, priority 2017, dated 2021)
